Patent US10040893B2, “Polymeric photoinitiators and photoinitiator monomers” (Coloplast A/S, priority 2012, dated 2018)

Assays:
[1] = Qualitative solubility comparison of monomeric photoinitiators; assay type: physicochemical; settings: photoinitiator monomer; concentration and temperature printed in the cell

Row | UV absorption wavelength (350-400 nm band region) [nm] | E1^1 (extinction coefficient of absorption) (at the stated absorption wavelength) | water solubility [1] | Compound
1 | 387 | 175 | – | CCCOc1ccc(Cl)c2c(=O)c3ccccc3sc12 [1-chloro-4-propoxy thioxanthone]
2 | – | – | sparingly soluble at 100 °C | O=c1c2ccccc2sc2c(OCCCN(CCO)CCO)ccc(Cl)c12 [Preparatory Example 2, 4-{3-[bis(2-hydroxyethyl)amino]propoxy}-1-chloro-9H-thioxanthen-9-one]
3 | – | – | sparingly soluble at 100 °C | O=C(c1ccccc1)c1ccc(OCCCN(CCO)CCO)cc1 [Preparatory Example 1, 4-{3-[bis(2-hydroxyethyl)amino]propoxy}benzophenone]
